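Briefly, cells in 96-well plates were exposed to five compound concentrations for 48 h, and endpoints were estimated by linear interpolation. TGI: concentration producing complete growth inhibition.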
Columns and labels:
Assay in all cases: inhibition of tumour cell growth, NCI panel, 48 h
786-0 renal = system: 786-0 renal
A498 renal = system: A498 renal
A549 NSCLC = system: A549 NSCLC
ACHN renal = system: ACHN renal
BT-549 breast = system: BT-549 breast
CAKI-1 renal = system: CAKI-1 renal
CCRF-CEM leukemia = system: CCRF-CEM leukemia
COLO 205 colon = system: COLO 205 colon
EKVX NSCLC = system: EKVX NSCLC
HCT-116 colon = system: HCT-116 colon
HCT-15 colon = system: HCT-15 colon
HL-60(TB) leukemia = system: HL-60(TB) leukemia
HOP-62 NSCLC = system: HOP-62 NSCLC
HOP-92 NSCLC = system: HOP-92 NSCLC
HS 578T breast = system: HS 578T breast
HT29 colon = system: HT29 colon
IGROV1 ovarian = system: IGROV1 ovarian
K-562 leukemia = system: K-562 leukemia
KM12 colon = system: KM12 colon
M14 melanoma = system: M14 melanoma
MALME-3M melanoma = system: MALME-3M melanoma
MCF7 breast = system: MCF7 breast
MDA-MB-231 breast = system: MDA-MB-231 breast
MDA-MB-435 = system: MDA-MB-435
MDA-N = system: MDA-N
MOLT-4 leukemia = system: MOLT-4 leukemia
NCI-H226 lung = system: NCI-H226 lung
NCI-H23 lung = system: NCI-H23 lung
NCI-H460 lung = system: NCI-H460 lung
NCI-H522 lung = system: NCI-H522 lung
NCI/ADR-RES ovarian = system: NCI/ADR-RES ovarian
OVCAR-3 ovarian = system: OVCAR-3 ovarian
OVCAR-4 ovarian = system: OVCAR-4 ovarian
OVCAR-5 ovarian = system: OVCAR-5 ovarian
OVCAR-8 ovarian = system: OVCAR-8 ovarian
PC-3 prostate = system: PC-3 prostate
RPMI-8226 leukemia = system: RPMI-8226 leukemia
RXF 393 renal = system: RXF 393 renal
SF-268 CNS = system: SF-268 CNS
SF-295 CNS = system: SF-295 CNS
SF-539 CNS = system: SF-539 CNS
SK-MEL-2 melanoma = system: SK-MEL-2 melanoma
SK-MEL-28 melanoma = system: SK-MEL-28 melanoma
SK-MEL-5 melanoma = system: SK-MEL-5 melanoma
SK-OV-3 ovarian = system: SK-OV-3 ovarian
SN12C renal = system: SN12C renal
SNB-19 CNS = system: SNB-19 CNS
SR leukemia = system: SR leukemia
T-47D breast = system: T-47D breast
TK-10 renal = system: TK-10 renal
U251 CNS = system: U251 CNS
UACC-257 melanoma = system: UACC-257 melanoma
UACC-62 melanoma = system: UACC-62 melanoma
UO-31 renal = system: UO-31 renal

Structure (SMILES): Cc1cc(S(=O)(=O)N/C(=C(\C#N)C(=O)c2ccccc2)[n+]2ccc(N(C)C)cc2)c([S-])cc1Cl
- TGI (786-0 renal): > 100 µM
- TGI (A498 renal): > 100 µM
- TGI (A549 NSCLC): > 100 µM
- TGI (ACHN renal): > 100 µM
- TGI (BT-549 breast): > 100 µM
- TGI (CAKI-1 renal): > 100 µM
- TGI (CCRF-CEM leukemia): > 100 µM
- TGI (COLO 205 colon): > 100 µM
- TGI (EKVX NSCLC): > 100 µM
- TGI (HCT-116 colon): > 100 µM
- TGI (HCT-15 colon): > 100 µM
- TGI (HL-60(TB) leukemia): > 100 µM
- TGI (HOP-62 NSCLC): > 100 µM
- TGI (HOP-92 NSCLC): 0.994 µM
- TGI (HS 578T breast): > 100 µM
- TGI (HT29 colon): > 100 µM
- TGI (IGROV1 ovarian): > 100 µM
- TGI (K-562 leukemia): > 100 µM
- TGI (KM12 colon): > 100 µM
- TGI (M14 melanoma): > 100 µM
- TGI (MALME-3M melanoma): 94 µM
- TGI (MCF7 breast): > 100 µM
- TGI (MDA-MB-231 breast): > 100 µM
- TGI (MDA-MB-435): > 100 µM
- TGI (MDA-N): > 100 µM
- TGI (MOLT-4 leukemia): > 100 µM
- TGI (NCI-H226 lung): > 100 µM
- TGI (NCI-H23 lung): > 100 µM
- TGI (NCI-H460 lung): > 100 µM
- TGI (NCI-H522 lung): > 100 µM
- TGI (NCI/ADR-RES ovarian): > 100 µM
- TGI (OVCAR-3 ovarian): > 100 µM
- TGI (OVCAR-4 ovarian): > 100 µM
- TGI (OVCAR-5 ovarian): > 100 µM
- TGI (OVCAR-8 ovarian): > 100 µM
- TGI (PC-3 prostate): > 100 µM
- TGI (RPMI-8226 leukemia): > 100 µM
- TGI (RXF 393 renal): > 100 µM
- TGI (SF-268 CNS): > 100 µM
- TGI (SF-295 CNS): > 100 µM
- TGI (SF-539 CNS): > 100 µM
- TGI (SK-MEL-2 melanoma): > 100 µM
- TGI (SK-MEL-28 melanoma): > 100 µM
- TGI (SK-MEL-5 melanoma): > 100 µM
- TGI (SK-OV-3 ovarian): > 100 µM
- TGI (SN12C renal): > 100 µM
- TGI (SNB-19 CNS): > 100 µM
- TGI (SR leukemia): > 100 µM
- TGI (T-47D breast): > 100 µM
- TGI (TK-10 renal): > 100 µM
- TGI (U251 CNS): > 100 µM
- TGI (UACC-257 melanoma): > 100 µM
- TGI (UACC-62 melanoma): > 100 µM
- TGI (UO-31 renal): > 100 µM

Source: PubChem BioAssay (NCI)
